Measurements published in US20220386611A1, “NOVEL HETEROARYL-TRIAZOLE COMPOUNDS AS PESTICIDES” (Bayer Aktiengesellschaft, priority 2019, published 2022).

What was measured:
Type in all cases: in vivo
[1] = test system: adult brown dog ticks (Rhipicephalus sanguineus); experiment: Rhipicephalus sanguineus in-vitro contact test with adult brown dog ticks; details: 5 μg/cm^2 (=500 g/ha), after 48 hours, read-out: efficacy (ticks dead or moribund)
Outline: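 Contact exposure: dried compound film inside glass tubes, dose 5 μg/cm^2 at 900 ppm, 5-10 adults per tube at room temperature. Scored at 48 h via a heat-escape test on a 45-50° C plate for up to 5 min.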

[2] = test system: fall armyworm larvae (Spodoptera frugiperda); experiment: Spodoptera frugiperda spray test; details: in Zea mays, 168 h
Protocol: Spodoptera frukiperda—Spray Test
Solvent: 78.0 parts by weight acetone • 1.5 parts by weight dimethylformamide
Emulsifier: alkylarylpolyglycol ether
To produce a suitable preparation of active compound, 1 part by weight of active compound is mixed with the stated amount of solvents and is diluted with water, containing an emulsifier concentration of 1000 ppm, to the desired concentration. Further test concentrations are prepared by dilution with emulsifier containing water.
Maize (Zea mays) leaf sections are sprayed with a preparation of the active ingredient of the desired concentration. Once dry, the leaf sections are infested with fall armyworm larvae (Spodoptera frugiperda).
After 7 days mortality in % is determined. 100% means all caterpillars have been killed and 0% means none of the caterpillars have been killed.

[3] = test system: Musca domestica strain WHO-N; experiment: Musca domestica test (MUSCDO surface treatment & contact assay); details: 24 hours after contact, read-out: efficacy (mortality); for mortality at 20 mg/m2: surface concentration 20 mg/m^2, 30 minutes exposure
Protocol: Musca domestica Test (MUSCDO Surface Treatment & Contact Assay)
Solvent: Aceton+2000 ppm rapeseed oil methyl ester (RME)
In order to produce a sufficient, active ingredient containing solution it is necessary to solve the test compound in the solvent-mix (acetone at 2 mg/ml/RME 2000 ppm). This solution is pipetted onto a glazed tile and after evaporation of the acetone, adult flies of the species Musca domestica strain WHO-N are placed onto the dried surface. The exposure time is 30 minutes. Mortality in percent (%) is determined 24 hours after contact of the insects to the treated surface. 100% mortality means that all tested insects are dead, whereas 0% means that no insect died.

[4] = test system: adult unfed cat fleas (Ctenocephalides felis); experiment: Ctenocephalides felis oral test; details: 48 h
Outline: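 About 20 adult unfed fleas fed through parafilm on cattle blood containing compound (DMSO concentrate diluted in blood); blood held at 37° C., fleas at room temperature. Mortality in % scored after 2 days (100% = all killed).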

[5] = test system: Aedes aegypti strain MONHEIM; experiment: Aedes aegypti test (AEDSAE surface treatment & contact assay); details: 24 hours after contact, read-out: efficacy (mortality); for mortality at 20 mg/m2: surface concentration 20 mg/m^2, 30 minutes exposure; for mortality at 4 mg/m2: surface concentration 4 mg/m^2, 30 minutes exposure
Outline: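 Compound dissolved in acetone (2 mg/ml) with 2000 ppm rapeseed oil methyl ester, then dried onto a glazed tile. Adult A. aegypti (MONHEIM strain) exposed to the surface for 30 min. Percent mortality scored 24 h after contact.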

[6] = test system: Rhipicephalus microplus larvae (strain Parkhurst, resistant against synthetic pyrethroids); experiment: Rhipicephalus (Boophilus) microplus in-vitro contact test, larval cattle tick; details: 5 μg/cm^2 (=500 g/ha), after 48 hours, read-out: efficacy (larvae dead or moribund)
Outline: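 Compound in acetone coated on glass tube inner walls; 900 ppm gives 5 μg/cm^2. Pyrethroid-resistant Parkhurst larvae (20-50 per tube) held at 27 °C, 85% relative humidity. Efficacy scored after 48 h from loss of negative geotaxis; 100% means all larvae dead or moribund.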

[7] = test system: adult cat fleas (Ctenocephalides felis); experiment: Ctenocephalides felis in-vitro contact test, adult cat flea; details: after 48 hours, read-out: efficacy (fleas dead or moribund); for pest or weed control at 5 µg/cm2, 500 g/ha: 5 μg/cm^2 (=500 g/ha); for pest or weed control at 1 µg/cm2, 100 g/ha: 1 μg/cm^2 (=100 g/ha)
Outline: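 Compound in acetone coated onto glass tube inner walls (900 ppm giving 5 μg/cm^2); after drying, 5-10 adult fleas added and held at room temperature. After 48 h, fleas heat-stressed at 45-50° C for up to 5 min; immotile or uncoordinated fleas scored dead/moribund, giving % efficacy.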

Row | Compound | pest or weed control at 5 µg/cm2, 500 g/ha [1] [%] | mortality at 100 g/ha [2] [%] | mortality at 20 mg/m2 [3] [%] | mortality at 100 ppm [4] [%] | mortality at 20 mg/m2 [5] [%] | pest or weed control at 5 µg/cm2 [6] [%] | pest or weed control at 5 µg/cm2, 500 g/ha [7] [%] | mortality at 4 mg/m2 [5] [%] | pest or weed control at 1 µg/cm2, 100 g/ha [7] [%] | mortality at 4 mg/m2 ([3]; surface concentration 4 mg/m^2, 30 minutes exposure) [%]
1 | CC(NC(=O)c1cc(C(F)(F)F)cc(C(F)(F)F)c1)c1nc(Br)nn1-c1ncccn1 (stereo not shown) [Example I-010] | 100 | 100 | 80 to 100 | 100 | 80 to 100 | 100 | 80 | – | – | –
2 | CC(NC(=O)c1cc(C(F)(F)F)cc(C(F)(F)F)c1)c1nc(Cl)nn1-c1ncccn1 (stereo not shown) [Example I-002] | 80 | 100 | 80 to 100 | 100 | 80 to 100 | 100 | – | 80 to 100 | 100 | –
3 | CC(NC(=O)c1cc(C(F)(F)F)cc(C(F)(F)F)c1)c1nc(I)nn1-c1ncccn1 (stereo not shown) [Example I-021] | 80 | 100 | 80 to 100 | 100 | 80 to 100 | 100 | 100 | 80 to 100 | 100 | 80 to 100
